Results from patent publication US7345070B2, “Peroxisome proliferator activated receptor agonists” (Eli Lilly and Company, priority 2000, dated 2008).

These compounds were tested on db/db mice (assay: Evaluation of glucose levels in db/db mice). Conditions: Mus musculus, 168 h, 30 mg/kg oral gavage daily for 7 days, 100% = glucose not different from lean values, read-out: Glucose Normalisation.
Type: in vivo
Description: Five week old male diabetic (db/db) mice [C57BlKs/j-m+/+ Lepr(db), Jackson Laboratory, Bar Harbor, Me.] or lean littermates (db+) were housed 6 per cage (10″×20″×8″ with aspen chip bedding) with food (Purina 5015) and water available at all times. After an acclimation period of 2 weeks, animals were individually identified by ear notches, weighed, and bled via the tail vein for determination of initial glucose levels. Blood was collected (100 μl) from unfasted animals by wrapping each mouse in a towel, cutting the tip of the tail with a scalpel, and milking blood from the tail into a heparinized capillary tube (Fisher) balanced on the edge of the bench. Sample was discharged into a heparinized microtainer with gel separator (VWR) and retained on ice. Plasma was obtained after centrifugation at 4° C. and glucose measured immediately. Remaining plasma was frozen until the completion of the experiment, when glucose and triglycerides were assayed in all samples. Animals were grouped based on initial glucose levels and body weights. Beginning the following morning, mice were dosed daily by oral gavage for 7 days using a 20 gauge, 1½″ curved disposable feeding needle. Treatments were test compounds (30 mg/kg), a positive control agent (30 mg/kg) or vehicle [1% carboxymethylcellulose (w/v)/0.25% Tween80 (w/v); 0.3 ml/mouse]. On day 7, mice were weighed and bled (tail vein) 3 hours after dosing. Twenty-four hours after the 7th dose (i.e., day 8), animals were bled again (tail vein). Samples obtained from conscious animals on days 0, 7 and 8 were assayed for glucose. After the 24 hour bleed, animals were weighed and dosed for the final time. Three hours after dosing on day 8, animals were anesthetized by inhalation of isoflurane and blood obtained via cardiac puncture (0.5-0.7 ml). Whole blood was transferred to serum separator tubes, chilled on ice and permitted to clot. Serum was obtained after centrifugation at 4° C. and frozen until analysis for compound levels. After sacrifice by cervical dislocation, the liver, heart and epididymal fat pads were excised and weighed.
The animals dosed with vehicle had average triglycerides values of 170-230 mg/dl, which were reduced by the positive PPARγ control (70-120 mg/dl with a mean reduction of 50%). Male db/db mice were hyperglycemic (average glucose of 680-730 mg/dl on the 7th day of treatment), while lean animals had average glucose levels between 190-230 mg/dl.
Glucose was measured […] using commercially purchased reagents (Sigma #315-500). According to the manufacturers, the procedures were modified from published work (McGowan, M. W., Artiss, J. D., Strandbergh, D. R. & Zak, B. Clin Chem, 20:470-5 (1974) and Keston, A. Specific colorimetric enzymatic analytical reagents for glucose. Abstract of papers 129th Meeting ACS, 31C (1956).); and depend on the release of a mole of hydrogen peroxide for each mole of analyte, coupled with a color reaction first described by Trinder (Trinder, P. Determination of glucose in blood using glucose oxidase with an alternative oxygen acceptor. Ann Clin Biochem, 6:24 (1969)). The absorbance of the dye produced is linearly related to the analyte in the sample. The assays were further modified in our laboratory for use in a 96 well format. Standards (Sigma #339-11, Sigma #16-11, and Sigma #CC0534 for glucose, triglycerides and total cholesterol, respectively), quality control plasma (Sigma # A2034), and samples (2 or 5 μl/well) were measured in duplicate using 200 μl of reagent. An additional aliquot of sample, pipetted to a third well and diluted in 200 μl water, provided a blank for each specimen. Plates were incubated at room temperature (18, 15, and 10 minutes for glucose, triglycerides and total cholesterol, respectively) on a plate shaker (DPC Micormix 5) and absorbance read at 500 nm (glucose and total cholesterol) or 540 nm (triglycerides) on a plate reader (Wallac Victor 1420). […]
Compound `Cc1oc(C2CCCCC2)nc1CCOc1ccc(CC(C)(Oc2cccc(F)c2)C(=O)O)cc1` (stereo not shown) [Example 23, 2-(3-Fluoro-phenoxy)-2-methyl-3-{4-[2-(5-methyl-2-cyclohexyl-oxazol-4-yl)-ethoxy]-phenyl}-propionic acid] has an inhibition in vivo at 30 mg/kg of 97%.
Compound `Cc1oc(-c2ccccc2)nc1CCOc1ccc(CC(C)(Oc2ccc(Cl)cc2)C(=O)O)cc1` (stereo not shown) [Example 29, 2-(4-Chloro-phenoxy)-2-methyl-3-{4-[2-(5-methyl-2-phenyl-oxazol-4-yl)-ethoxy]-phenyl}-propionic acid] has an inhibition in vivo at 30 mg/kg of 86%.
`Cc1oc(-c2cccs2)nc1CCOc1ccc(CC(C)(Oc2cccc(C(C)(C)C)c2)C(=O)O)cc1` (stereo not shown) [Example 25, 2-(3-tert-Butyl-phenoxy)-2-methyl-3-{4-[2-(5-methyl-2-thiophen-2-yl-oxazol-4-yl)-ethoxy]-phenyl}-propionic acid] gave an inhibition in vivo at 30 mg/kg of 73%.
Compound `Cc1oc(-c2ccccc2)nc1CCOc1ccc(CC(C)(Oc2ccc3c(c2)OCO3)C(=O)O)cc1` (stereo not shown) [Example 78, 2-(Benzo[1,3]dioxol-5-yloxy)-2-methyl-3-{4-[2-(5-methyl-2-phenyl-oxazol-4-yl)-ethoxy]-phenyl}-propionic acid] has an inhibition in vivo at 30 mg/kg of 86%.
Compound `Cc1ccc(OC(C)(Cc2ccc(OCCc3nc(-c4cccs4)oc3C)cc2)C(=O)O)cc1` (stereo not shown) [Example 40, 2-Methyl-3-{4-[2-(5-methyl-2-thiophen-2-yl-oxazol-4-yl)-ethoxy]-phenyl}-2-p-tolyloxy-propionic acid] has an inhibition in vivo at 30 mg/kg of 103%.
With `Cc1oc(C2CCCCC2)nc1CCOc1ccc(CC(C)(Oc2ccc(OC(F)(F)F)cc2)C(=O)O)cc1` (stereo not shown) [Example 44, 3-{4-[2-(2-Cyclohexyl-5-methyl-oxazol-4-yl)-ethoxy]-phenyl}-2-methyl-2-(4-trifluoromethoxy-phenoxy)-propionic acid] the inhibition in vivo at 30 mg/kg was 83%.
`Cc1oc(CCc2ccccc2)nc1CCOc1ccc(C[C@](C)(Oc2ccccc2)C(=O)O)cc1` [Example 86, (S)-2-Methyl-3-{4-[2-(5-methyl-2-phenethyl-oxazol-4-yl)-ethoxy]-phenyl}-2-phenoxy-propionic acid] showed an inhibition in vivo at 30 mg/kg of 92%.
Work on `COc1cccc(OC(C)(Cc2ccc(OCCc3nc(C4CCCCC4)oc3C)cc2)C(=O)O)c1` (stereo not shown) [Example 76, 3-{4-[2-(2-Cyclohexyl-5-methyl-oxazol-4-yl)-ethoxy]-phenyl}-2-(3-methoxy-phenoxy)-2-methyl-propionic acid] yielded an inhibition in vivo at 30 mg/kg of 97%.
`Cc1oc(-c2cccs2)nc1CCOc1ccc(CC(C)(Oc2ccc(C(C)(C)C)cc2)C(=O)O)cc1` (stereo not shown) [Example 17, 2-Methyl-3-{4-[2-(5-methyl-2-thiophen-2-yl-oxazol-4-yl)-ethoxy]-phenyl}-2-(4-tert-butylphenoxy)-propionic acid] gave an inhibition in vivo at 30 mg/kg of 112%.
Compound `COc1ccc(OC(C)(Cc2ccc(OCCc3nc(-c4cccs4)oc3C)cc2)C(=O)O)cc1` (stereo not shown) [Example 19, 2-Methyl-3-{4-[2-(5-methyl-2-thiophen-2-yl-oxazol-4-yl)-ethoxy]-phenyl}-2-(4-methoxyphenoxy)-propionic acid] has an inhibition in vivo at 30 mg/kg of 95%.
`Cc1oc(C2CCCCC2)nc1CCOc1ccc(CC(C)(Oc2ccc(C(F)(F)F)cc2)C(=O)O)cc1` (stereo not shown) [Example 52, 3-{4-[2-(2-Cyclohexyl-5-methyl-oxazol-4-yl)-ethoxy]-phenyl}-2-methyl-2-(4-trifluoromethyl-phenoxy)-propionic acid] was tested, and the inhibition in vivo at 30 mg/kg was 98%.
With `Cc1oc(C2CCCCC2)nc1CCOc1ccc(CC(C)(Oc2ccc(C3CCCCC3)cc2)C(=O)O)cc1` (stereo not shown) [Example 34, 3-{4-[2-(2-Cyclohexyl-5-methyl-oxazol-4-yl)-ethoxy]-phenyl}-2-(4-cyclohexyl-phenoxy)-2-methyl-propionic acid] the inhibition in vivo at 30 mg/kg was 80%.
`Cc1oc(C2CCCCC2)nc1CCOc1ccc(CC(C)(Oc2ccc(F)c(F)c2)C(=O)O)cc1` (stereo not shown) [Example 58, 3-{4-[2-(2-Cyclohexyl-5-methyl-oxazol-4-yl)-ethoxy]-phenyl}-2-(3,4-difluoro-phenoxy)-2-methyl-propionic acid] showed an inhibition in vivo at 30 mg/kg of 81%.
